Experiment: CD spectroscopy, α-helicity by CONTIN-LL
Assay type: physicochemical
Conditions: for helix1 / helix2 / helix % / strand1 / strand2 / total helix / turns / unordered: CONTINLL from CD spectra
Procedure: CD spectra were measured using a J-810 spectropolarimeter (JASCO, Japan). Spectra were recorded from 250 nm to 190 nm wavelength using a 1 cm path-length cuvette. Scans were repeated five times and averaged. Molar ellipticity was calculated per amino acid residue. The concentrations of SNCP and p53pep were 0.2 mg/mL and 20 μM, respectively. All sample suspensions were incubated at least for 2 days at room temperature before CD measurement. To perform temperature-dependent CD experiments, the spectra were recorded at 10 °C interval over a temperature range of 25 to 75 °C, with 30 min incubation time to reach equilibrium at each temperature. The α-helicity of peptides was calculated by using the CONTIN-LL algorithms provided from the DICHROWEB server.

Structure (SMILES): CC(C)C[C@@H]1NC(=O)[C@H](CC(C)C)NC(=O)[C@H](CCCNC(=N)N)NC(=O)[C@H](Cc2c[nH]c3ccccc23)NC(=O)[C@H](CC(C)C)NC(=O)[C@H](CC(N)=O)NC(=O)[C@H](NC(=O)[C@H](Cc2ccccc2)NC(=O)[C@@H](NC(=O)[C@H](CCC(N)=O)NC(=O)[C@H](CCC(N)=O)NC(=O)[C@H](CO)NC(=O)[C@H](CCC(N)=O)NC(=O)CNC(=O)CNC(=O)c2ccc3c(c2)C(=O)OC32c3ccc(O)cc3Oc3cc(O)ccc32)[C@@H](C)O)CCCCNC(=O)CCc2cn(nn2)CCC[C@@H](C(=O)N[C@@H](CCC(N)=O)C(=O)N[C@@H](CC(N)=O)C(N)=O)NC1=O [st-p53pep]
- helix1 (25 ℃): 0.186
- helix2 (25 ℃): 0.16
- helix % (25 ℃): 34.6%
- strand1 (25 ℃): 0.062
- strand2 (25 ℃): 0.054
- total helix (25 ℃): 0.346
- turns (25 ℃): 0.123
- unordered (25 ℃): 0.415
- helix1 (35 ℃): 0.176
- helix2 (35 ℃): 0.154
- helix % (35 ℃): 33%
- strand1 (35 ℃): 0.059
- strand2 (35 ℃): 0.054
- total helix (35 ℃): 0.33
- turns (35 ℃): 0.092
- unordered (35 ℃): 0.464
- helix1 (45 ℃): 0.187
- helix2 (45 ℃): 0.158
- helix % (45 ℃): 34.5%
- strand1 (45 ℃): 0.052
- strand2 (45 ℃): 0.05
- total helix (45 ℃): 0.345
- turns (45 ℃): 0.11
- unordered (45 ℃): 0.444
- helix1 (55 ℃): 0.186
- helix2 (55 ℃): 0.147
- helix % (55 ℃): 33.3%
- strand1 (55 ℃): 0.057
- strand2 (55 ℃): 0.049
- total helix (55 ℃): 0.333
- turns (55 ℃): 0.117
- unordered (55 ℃): 0.445
- helix1 (65 ℃): 0.088
- helix2 (65 ℃): 0.108
- helix % (65 ℃): 19.6%
- strand1 (65 ℃): 0.14
- strand2 (65 ℃): 0.096
- total helix (65 ℃): 0.196
- turns (65 ℃): 0.134
- unordered (65 ℃): 0.433
- helix1 (75 ℃): 0.041
- helix2 (75 ℃): 0.06
- helix % (75 ℃): 10.1%
- strand1 (75 ℃): 0.132
- strand2 (75 ℃): 0.079
- total helix (75 ℃): 0.101
- turns (75 ℃): 0.348
- unordered (75 ℃): 0.341
- α-helicity (extracted peptide after re-encapsulation in SNCP8): 73.4%
- α-helicity (peptide extracted from SNCP8@st-p53pep): 34.6%
